ChEMBL document CHEMBL1137590, “(3R)-4-[(3R)-3-Amino-4-(2,4,5-trifluorophenyl)butanoyl]-3-(2,2,2-trifluoroethyl)-1,4-diazepan-2-one, a selective dipeptidyl peptidase IV inhibitor for the treatment of type 2 diabetes” (Bioorg Med Chem Lett, 2007)

Assays:
[1] = Plasma clearance in rats; assay type: ADME, organism-based; conditions: rat, read-out: Clp
[2] = Oral bioavailability in rats; assay type: ADME, organism-based; conditions: rat, in vivo
[3] = Half-life in dogs; assay type: ADME, organism-based, Canis lupus familiaris; conditions: dog, in vivo
Rattus norvegicus = species: Rattus norvegicus; assay: Dose-normalized area under plasma concentration vs time curve in rats; assay type: ADME, organism-based; conditions: in vivo
[4] = Plasma clearance in dogs; assay type: ADME, organism-based, Canis lupus familiaris; conditions: dog, read-out: Clp
[5] = Oral bioavailability in dogs; assay type: ADME, organism-based, Canis lupus familiaris; conditions: dog, in vivo
[6] = Half-life in rats; assay type: ADME, organism-based; conditions: rat, in vivo
Canis familiaris = species: Canis familiaris; assay: Dose-normalized area under plasma concentration vs time curve in dogs; assay type: ADME, organism-based, Canis lupus familiaris; conditions: dog, in vivo
Dipeptidyl peptidase 2 = Dipeptidyl peptidase 2 (Homo sapiens, UniProt Q9UHL4); assay: In vitro inhibition of QPP dipeptidylpeptidase II

| Compound | clearance [1] [mL/min/kg] | bioavailability [2] [%] | half-life [3] [h] | AUC (Rattus norvegicus) | clearance [4] [mL/min/kg] | bioavailability [5] [%] | half-life [6] [h] | AUC (Canis familiaris) | IC50 (Dipeptidyl peptidase 2) [µM] |
| --- | --- | --- | --- | --- | --- | --- | --- | --- | --- |
| C[C@@H]1C(=O)NCCCN1C(=O)C[C@H](N)Cc1cc(F)c(F)cc1F | 88 | 26 | 4.3 | 0.15 uM h/(mg/kg) | 9 | 100 | 1 | 8.5 uM h/(mg/kg) |  |
| N[C@@H](CC(=O)N1CCCNC(=O)C1)Cc1cc(F)c(F)cc1F |  |  |  |  |  |  |  |  | > 100 |
| N[C@@H](CC(=O)N1CCCNC(=O)[C@H]1CC(F)(F)F)Cc1cc(F)c(F)cc1F | 94 | 36 | 9 | 0.2 uM h/(mg/kg) | 18 | 95 | 2 | 2.2 uM h/(mg/kg) |  |
